Reference: patent US10973840B2, “Methods of sensitizing tumor cells to weak base chemotherapeutic drugs” (SOCPRA SCIENCES SANTÉ ET HUMAINES S.E.C., priority 2017, dated 2021)
Like-named read-outs stand apart in the source and are kept apart here.

Columns and labels:
[1] = system: NHE6 or NHE9 knockdown cells; assay: MTT cell viability assay in NHE6 or NHE9 knockdown cells; assay type: cell-based, human; conditions: for IC50: Homo sapiens
Procedure: Lentiviruses and cell transduction pLKO.1-NHE6 and pLKO.1-NHE9 shRNA (Sigma-Aldrich) were co-transfected with ViraPower™ Lentiviral Packaging Mix (Invitrogen) into HEK293T cells according to manufacturer's instructions. Viruses were collected and concentrated by ultracentrifugation 72 h after transfection. HT-1080 and MDA-MB-231 cells were infected overnight with viruses and selected with puromycin (2 μg/ml) on the third day following transduction.
(§1) Cells (5×10^3) were cultured in 96-well plates and pre-incubated under 21% O2 or 1% O2 for 4 h following the addition of drugs for 72 h. Cell viability was measured using the 3-(4,5-dimethylthiazol-2-yl)-2,5-diphenyltetrazolium bromide (MTT) dye (Life Technologies) according to manufacturer's instructions. Because hypoxic conditions may affect the reduction of MTT to formazan, incubation of all cell cultures with MTT were performed under normoxic conditions. Each experiment was performed in triplicate and at least three independent experiments were performed. Log-scale dose-response data were plotted on a graph and a three-parameter non-linear regression was applied to determine IC50 values. For calculation of the IC50s, both normoxic and hypoxic drug-treated samples were normalized with their untreated counterpart.

[2] = system: HT-1080 overexpressing NHE6^527-588 peptide; assay: MTT cell viability assay in HT-1080 expressing NHE6^527-588 or scrambled peptide; assay type: cell-based, human; conditions: for IC50: Homo sapiens, read-out: IC50 of doxorubicin
Procedure: peGFP-N3-NHE6 was generously provided by Hiroshi Kanazawa (Osaka University, Japan). pcDNA3-HA/NHE6 was constructed from peGFP-N3-NHE6. For this, the entire NHE6 coding sequence was excised with BamHI and EcoRI restriction enzymes and cloned in pcDNA3-HA vector. pcDNA3-HA/NHE6^527-588 was designed from pcDNA3-HA/NHE6 using the following primers: […]
HT-1080 cells were stably transfected with Polyethylenimine (PEI, MirusBio) and positive cells were selected with Geneticin™ (G418) at 400 μg/mL. In the case of MDA-MB-231 cells, plasmids were transfected using Lipofectamine™ 2000 ([…]) and G418 was added to cell cultures at a concentration of 2 mg/mL.
as §1
The middle portion (position 527-588) of the NHE6 cytoplasmic tail has previously been reported to interact with RACK1^31. Stable HT-1080 cells expressing the NHE6^527-588 fragment or a scrambled counterpart were generated.

[3] = system: MDA-MB-231 breast cancer cells; assay: MTT cell viability assay, MDA-MB-231; assay type: cell-based, human; conditions: for IC50: Homo sapiens; for Fold change: MDA-MB-231, IC50 at 1% O2 to IC50 at 21% O2
Procedure: as §1
(§2) To assess the role of pH in hypoxia-induced resistance to anthracyclines, the human breast cancer MDA-MB-231 and fibrosarcoma HT-1080 cell lines were incubated in the presence or absence of the commonly used anthracycline drugs, doxorubicin (Dox), daunorubicin (Dau) and the anthracycline analog drug, mitoxantrone (Mtx), under hypoxic (1% O2) or normoxic (21% O2) conditions for 72 hours. Cell viability was then assessed using the MTT assay. The impact of extracellular pH on Dox uptake by HT-1080 was also assessed.

HT-1080 tumor xenografts = assay: Chorioallantoic membrane (CAM) xenograft assay, HT-1080; assay type: in vivo, chick embryo; conditions: HT-1080 on CAM
Procedure: Fertilized eggs from white leghorn chicken were obtained from Public Health Agency of Canada (Nepean, ON). Ethics approval was obtained from the Ethics Committee on Animal Research of the University of Sherbrooke and all experimental procedures involving embryos were conducted in accordance with the regulations of the Canadian Council on Animal Care. Eggs were incubated in an Ova-Easy egg incubator (Brinsea) at 37° C. with 60% humidity. At Day 3, eggs were cracked as described^67. At Day 9, HT-1080 and MDA-MB-231 cell suspensions (1×10^6 and 2×10^6 cells, respectively) were mixed (1:1) with growth factor reduced Matrigel (BD Biosciences) in a total volume of 20 μl. Cell grafts were placed on top of the CAM and eggs were returned to the incubator for 96 h until Day 13 (n>6 chick embryos per cell line). When mentioned, 50 μl of Dox were added topically to the formed tumors (Day 13 after tumor cell grafting). At Day 16, chick embryos were euthanatized by decapitation. Tumors were removed and tumor volumes were calculated using the formula: (Dd^2/3). For RNA quantification, tumors were immediately snap-frozen in liquid nitrogen and kept at −80° C. until RNA extraction using the Trizol reagent.
To determine whether these observations were of relevance to tumor therapy in vivo, the inventors used an ex ovo chorioallantoic membrane (CAM) xenograft model in live chicken embryos^40. MDA-MB-231 or HT-1080 cells, or cells expressing either the NHE6^527-588 competing fragment or its scrambled counterpart were inoculated onto the CAM of 9-day-old chick embryos. After allowing 3 days for cells to engraft, tumors were treated with Doxorubicin or PBS. Four days later, chick embryos were euthanized, and tumors were removed for analysis (FIG. 10A). To first ascertain that tumors implanted in CAM developed hypoxia, total mRNA was extracted from tumors generated by untransfected HT-1080 cells and gene expression of the hypoxic markers CA9, GLUT1 and MCT4 was measured by qPCR. […]

[4] = system: HT-1080 fibrosarcoma cells; assay: MTT cell viability assay, HT-1080; assay type: cell-based, human; conditions: for Fold change: HT-1080, IC50 at 1% O2 to IC50 at 21% O2; for IC50: Homo sapiens
Procedure: as §1, §2

[5] = Baf 100 nM or Cq 10 μM where combined

IC50 ([2]; HT-1080, HT-1080 expressing scrambled peptide (scr), 1% O2): 521 nM | IC50 ([2]; HT-1080, HT-1080 expressing scrambled peptide (scr), 21% O2): 117 nM | IC50 ([2]; HT-1080, HT-1080 overexpressing NHE6^527-588 peptide, 1% O2): 224 nM | IC50 ([2]; HT-1080, HT-1080 overexpressing NHE6^527-588 peptide, 21% O2): 137 nM | IC50 ([3]; MDA-MB-231, 72 h, MDA-MB-231, 1% O2, 72 h, read-out: IC50 of anthracyclines): 688 nM | IC50 ([3]; MDA-MB-231, 72 h, MDA-MB-231, 21% O2, 72 h, read-out: IC50 of anthracyclines): 125 nM | IC50 ([3]; MDA-MB-231, MDA-MB-231, 1% O2, Baf 100 nM or Cq 10 μM where combined, read-out: IC50 of doxorubicin, cells treated with neutralizing agents): 852 nM | IC50 ([3]; MDA-MB-231, MDA-MB-231, 21% O2, Baf 100 nM or Cq 10 μM where combined, read-out: IC50 of doxorubicin, cells treated with neutralizing agents): 168 nM | IC50 ([4]; HT-1080, 72 h, HT-1080, 1% O2, 72 h, read-out: IC50 of anthracyclines): 301 nM | IC50 ([4]; HT-1080, 72 h, HT-1080, 21% O2, 72 h, read-out: IC50 of anthracyclines): 73.4 nM | IC50 ([4]; HT-1080, HT-1080, 1% O2, Baf 100 nM or Cq 10 μM where combined, read-out: IC50 of doxorubicin, cells treated with neutralizing agents): 448 nM | IC50 ([4]; HT-1080, HT-1080, 21% O2, Baf 100 nM or Cq 10 μM where combined, read-out: IC50 of doxorubicin, cells treated with neutralizing agents): 113 nM
Structure (SMILES): COc1cccc2c1C(=O)c1c(O)c3c(c(O)c1C2=O)C[C@@](O)(C(=O)CO)C[C@@H]3O[C@H]1C[C@H](N)[C@H](O)[C@H](C)O1 [Dox, doxorubicin]
IC50 ([1]; scrambled shRNA, 1% O2): 459 nM | IC50 ([1]; scrambled shRNA, 21% O2): 179 nM | IC50 ([1]; shRNA NHE6, 21% O2): 421 nM | IC50 ([1]; shRNA NHE9, 21% O2): 202 nM | increase in cell resistance to Dox ([1]; NHE6 knockdown, normoxic cells): 2.4 fold | Fold (compared to scrambled 21% O2) ([1]; scrambled shRNA, 1% O2): 2.5 fold | Fold (compared to scrambled 21% O2) ([1]; scrambled shRNA, 21% O2): 1.0 fold | Fold (compared to scrambled 21% O2) ([1]; shRNA NHE6, 21% O2): 2.4 fold | Fold (compared to scrambled 21% O2) ([1]; shRNA NHE9, 21% O2): 1.1 fold | Fold ([2]; NHE6^527-588, 1% O2 vs 21% O2): 1.6 fold | Fold ([2]; scr, 1% O2 vs 21% O2): 4.4 fold | Fold change [3]: 5.5 fold | Fold change [3, 5]: 5.1 fold | tumor growth (HT-1080 tumor xenografts; 0.5 μM Dox): unaffected | tumor growth (HT-1080 tumor xenografts; 2 μM Dox topical): significantly reduced | Fold change [4]: 4.1 fold | Fold change [4, 5]: 4.0 fold | increase in resistance toward the drug by hypoxia ([4]; HT-1080 cells (so in the source), 1% O2 vs 21% O2): 5.5 fold
